Measurements taken from patent US6995188B2 (priority 2002, dated 2006).
“And” between values parts separate entries of the source, which are not always exact repeats. Equal entries are not always repeated. Where two headings read alike, the source gives them in different places.

Columns and labels:
[1] = SGLU1 multiple dose toxicology in vivo; set-up: species or system mice
Protocol: Further studies were performed to determine the dose-limiting toxicity associated with the administration of repeated doses in groups of mice. Tables 11–16 below describe the results of the multiple-dose toxicology studies for MER-1 and Tables 17–21 describe results of the multiple-dose toxicology of SGLU-1.
The results of the SGLU-1 Multiple Dose I.V. are summarized as follows: Five mice/sex were administered 5 daily intravenous injections of SGLU via the tail vein at doses of 50, 100, 150, 200, 250, 300, and 350 mg/kg/day. All surviving mice were held for 28 days, sacrificed, and designated tissues collected, formalin fixed, and examined.

[2] = Swiss Webster, mouse, in vivo; for Dead/Total Number / Dead/Total Number for IP Administration: ip
in vivo = conditions: Swiss Webster, mouse
physchem = conditions: water
[3] = 5 daily IV injections, 50–350 mg/kg/day

## C[As](C)SC[C@H](NC(=O)CC[C@H](N)C(=O)O)C(=O)NCC(=O)O [SGLU1, S-(dimethylarsino) glutathione]
[1]; 300 mg/kg/day, F
  Lung: Atelectasis, incidence: 1/5
  Lung: Congestion, incidence: 3/5
  Lung: Vasculitis, incidence: 1/5
  Number of animals/dose that tolerated 1 dose: 1/5
  Number of animals/dose that tolerated 2 doses: 2/5
  Number of animals/dose that tolerated 5 doses: 2/5
  Tail: Acute necrosis with vasculitis, thrombosis, and hemorrhage, incidence: 1/5
[1]; 300 mg/kg/day, Female
  Body Weights Avg.: 24 grams
[1]; 300 mg/kg/day, M
  Epididymus: Oligospermia, incidence: 2/5
  Heart: Medial hyprtrophy, coronary artery, incidence: 1/5
  Liver: Hepatocyte hypertrophy: Centrilobular (compatible with SER), incidence: 4/5
  Liver: Pyogranuloma, focal, incidence: 2/5
  Lung: Congestion, incidence: 1/5
  Number of animals/dose that tolerated 1 dose: 3/5
  Number of animals/dose that tolerated 5 doses: 2/5
  Tail: Acute necrosis with vasculitis, thrombosis, and hemorrhage, incidence: 1/5
  Tail: Ulcerative dermatitis, incidence: 1/5
  Testes: Seminiferous tubular degeneration, incidence: 2/5
[1]; 300 mg/kg/day, Male
  Body Weights Avg.: 23 grams
[1]; 350 mg/kg/day IV daily x5
  Clinical Signs: Moderate decr. activity and 2 M tail necr.: amputate
[1]; 350 mg/kg/day, F
  Kidney: Murine progressive glomerulonephropathy, incidence: 1/5
  Liver: Hepatocyte hypertrophy: Periportal w/vacuolation, incidence: 2/5
  Liver: Inflammation, portal, incidence: 1/5
  Lung: Congestion, incidence: 2/5
  Lung: Fibrin Thrombi, incidence: 1/5
  Lung: Vasculitis, incidence: 1/5
  Mandibular L. N.: Apoptosis, lymphocyte, incidence: 1/5
  Number of animals/dose that tolerated 1 dose: 4/5
  Number of animals/dose that tolerated 2 doses: 1/5
  Spleen: Congestion, incidence: 5/5
  Thymus: Apoptosis, increased, incidence: 5/5
[1]; 350 mg/kg/day, Female
  Body Weights Avg.: 24 grams
[1]; 350 mg/kg/day, M
  Bone Marrow: Myeloid hyperplasia, incidence: 1/5
  Epididymus: Oligospermia, incidence: 5/5
  Kidney: Congestion, incidence: 1/5
  Kidney: Inflammation, focal, incidence: 1/5
  Liver: Hepatocyte hypertrophy: Centrilobular (compatible with SER), incidence: 1/5
  Liver: Increased mitoses, incidence: 1/5
  Liver: Pyogranuloma, focal, incidence: 2/5
  Lung: Fibrin Thrombi, incidence: 1/5
  Lung: Hemorrhage, focal, incidence: 2/5
  Number of animals/dose that tolerated 1 dose: 3/5
  Number of animals/dose that tolerated 5 doses: 2/5
  Spleen: Congestion, incidence: 2/5
  Spleen: Extramedullary hematopoiesis, increased, incidence: 1/5
  Tail: Acute necrosis with vasculitis, thrombosis, and hemorrhage, incidence: 1/5
  Testes: Seminiferous tubular degeneration, incidence: 5/5
  Thymus: Apoptosis, increased, incidence: 2/5
[1]; 350 mg/kg/day, Male
  Body Weights Avg.: 20 grams
[1]; [3]
  deaths (summary): Deaths occurred at 250, 300, and 350 mg/kg/day with female mice being more susceptible than males
  microscopic observations (summary): compound-related lesions in lung, liver, thymus, and testes
[1]; 5 daily IV injections, F, 50 mg/kg/day
  Deaths, number of animals/dose: 0/5
[1]; 5 daily IV injections, F, 150 mg/kg/day
  Deaths, number of animals/dose: 0/5
[1]; 5 daily IV injections, F, 200 mg/kg/day
  Deaths, number of animals/dose: 0/5
[1]; 5 daily IV injections, F, 250 mg/kg/day
  Deaths, number of animals/dose: 1/5
[1]; 5 daily IV injections, F, 300 mg/kg/day
  Deaths, number of animals/dose: 3/5
[1]; 5 daily IV injections, F, 350 mg/kg/day
  Deaths, number of animals/dose: 5/5
[1]; 5 daily IV injections, M, 50 mg/kg/day
  Deaths, number of animals/dose: 0/5
[1]; 5 daily IV injections, M, 100 mg/kg/day
  Deaths, number of animals/dose: 0/5
[1]; 5 daily IV injections, M, 150 mg/kg/day
  Deaths, number of animals/dose: 0/5
[1]; 5 daily IV injections, M, 200 mg/kg/day
  Deaths, number of animals/dose: 0/5
[1]; 5 daily IV injections, M, 250 mg/kg/day
  Deaths, number of animals/dose: 0/5
[1]; 5 daily IV injections, M, 300 mg/kg/day
  Deaths, number of animals/dose: 1/5
[1]; 5 daily IV injections, M, 350 mg/kg/day
  Deaths, number of animals/dose: 3/5
[1]; 5 daily IV injections, female mice
  no-observable-effect level: 150 mg/kg
[1]; 5 daily IV injections, female mice, 200 mg/kg/day
  centrilobular hypertrophy of hepatocytes, incidence: 1/5
[1]; 5 daily IV injections, male mice
  no-observable-effect level (NOEL): 100 mg/kg/day
[1]; 5 daily IV injections, males, 150 mg/kg/day
  testicular seminiferous tubular degeneration, incidence: 1/5
[2]
  tolerance (mortality): tolerated the 178 mg/kg and the 285 mg/kg doses of SGLU1 well
[2]; 178 mg/kg
  Dead/Total Number: 0/5
[2]; 285 mg/kg
  Dead/Total Number: 1/5
[2]; 318 mg/kg
  Dead/Total Number for IP Administration: 0/5
  Dead/Total Number for IV Administration: 1/5
[2]; 357 mg/kg
  Dead/Total Number: 5/5
[2]; 375 mg/kg
  Dead/Total Number for IP Administration: 4/5
  Dead/Total Number for IV Administration: 5/5
In vivo
  LD50: 350 mg/kg
In vivo; iv
  MTD: 350 mg/kg
physchem
  solubility: ~60 mg/mL
